This note sets out measurements from patent US20160296499A1, “Spiroindoline Antiparasitic Derivatives” (ZOETIS SERVICES LLC, priority 2013, published 2016).

The test system of assay [1] is Haemonchus contortus L3. The assay is described as follows: Haemonchus contortus, Larvae Stage 3 (HcL3) In Vitro Assay. To be noted: Haemonchus contortus.
Assay [2] relates to Dirofilaria immitis microfilariae. The assay is described as follows: Dirofilaria immitis, Microfilariae (DiMF) In Vitro Assay. The following applies: Dirofilaria immitis.
Assay [3] concerns the target T1, bovine vesicular acetylcholine transporter (VAChT) (Bos taurus, UniProt E1BK36).
T1 sequence (E1BK36 1-524): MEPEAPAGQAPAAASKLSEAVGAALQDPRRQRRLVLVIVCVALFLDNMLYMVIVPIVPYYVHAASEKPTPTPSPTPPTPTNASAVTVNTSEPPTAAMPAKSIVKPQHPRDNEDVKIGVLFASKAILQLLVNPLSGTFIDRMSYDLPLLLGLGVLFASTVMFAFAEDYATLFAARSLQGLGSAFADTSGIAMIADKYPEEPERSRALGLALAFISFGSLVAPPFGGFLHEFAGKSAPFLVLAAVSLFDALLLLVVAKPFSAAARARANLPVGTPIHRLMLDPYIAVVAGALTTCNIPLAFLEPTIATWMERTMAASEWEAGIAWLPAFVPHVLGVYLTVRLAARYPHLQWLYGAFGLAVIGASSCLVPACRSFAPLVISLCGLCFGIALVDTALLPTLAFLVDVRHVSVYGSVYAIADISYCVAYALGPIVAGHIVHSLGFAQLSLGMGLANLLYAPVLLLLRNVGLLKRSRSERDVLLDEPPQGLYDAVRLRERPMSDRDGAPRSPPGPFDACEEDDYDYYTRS
Put plainly: Radioligand Binding Assay. The following applies: for Ki: Bovine binding Ki, CHO-K1 membranes with recombinant bovine VAChT, [3H]Compound X6 0.3 nM.
Method: To measure binding affinity, CHO-K1 cells recombinantly expressing the bovine VAChT was generated as a stable cell line and subsequently used to produce membrane preparations.
Radioligand binding assays were conducted in disposable polypropylene 96-well plates. VAChT competition assays were initiated by the addition of bovine recombinant membrane homogenate (50 μg/well) in assay buffer (50 mM Tris-HCl, 120 mM NaCl, 5 mM KCl, 1 mM MgCl, and 2 mM CaCl, pH 7.4) containing [^3H]Compound X6 (0.3 nM) with or without competing ligand. The assay was allowed to equilibrate for 120 minutes at room temperature, before being filtered onto GF/C unifilter plates pre-coated in 0.3% polyethylenimine (Perkin Elmer Life and Analytical Sciences, Boston, Mass.) with a Filtermate 96 harvester (PerkinElmer Life and Analytical Sciences). Filters were washed in ice-cold 50 mM Tris-HCl, pH 7.4 buffer and then counted for radioactivity in a TopCount microplate scintillation counter after addition of 50 μL Microscint 20 (PerkinElmer). Non-specific binding was measured in the presence of 10 μM Compound X6. Apparent dissociation constants (Ki values) from the competition experiments were calculated using an iterative nonlinear regression curve-fitting program (GraphPAD Prism 6.0 Software, San Diego, Calif.) and are reported in Table 2.

The mark [4] stands for this setting: 96 h, read-out: HcL3 MEC, Minimal Effective Concentration whereby worm motility is inhibited by approximately 70%, 37° C., tested 0.001-100 μM.
[5] abbreviates: 72 h, read-out: Di MF, MEC, decrease in microfilariae motility by visual assessment, curve starting at 100 μM.
The mark [6] stands for this setting: 96 hours, 37° C., read-out: HcL3 MEC.

Structures are written as SMILES. Like-named read-outs stand apart in the source and are kept apart here.

A word on the Ki: it is a dissociation constant, usually derived from enzyme kinetics or from competition with a known ligand. As for `O=C(NCC1CCCO1)N1CC2(CCN(C/C=C/c3ccc(Cl)c(Cl)c3)CC2)c2c1ccc1scnc21` (racemic) [Example 34, (+/−)(E)-1-(3-(3,4-dichlorophenyl)allyl)-N-((tetrahydrofuran-2-yl)methyl)spiro[piperidine-4,8′-thiazolo[4,5-e]indole]-6′(7′H)-carboxamide], the minimal effective concentration in assay [1] (setting [4]) is 100 µM; in assay [2] (setting [5]), 3.3 µM. In addition, the Ki in assay [3] came to 467 nM.
For `O=C(NCC1CCOC1)N1CC2(CCN(C/C=C/c3ccc(Cl)c(Cl)c3)CC2)c2c1ccc1scnc21` (racemic) [Example 35, (+/−)(E)-1-(3-(3,4-dichlorophenyl)allyl)-N-((tetrahydrofuran-3-yl)methyl)spiro[piperidine-4,8′-thiazolo[4,5-e]indole]-6′(7′H)-carboxamide] the same measures were 100 µM, 3.3 µM and 731 nM.
One may read the Kd as the concentration at which binding is half-saturated. Read a high Kd as lower affinity. In assay [3], `COc1ccc(/C=C/CN2CCC3(CC2)CN(C(=O)NCc2ccnc(Cl)c2)c2ccc(F)cc23)cc1` [Compound X6, reference compound] yielded a Kd of 0.6 nM.
As to `O=C(NCc1ccnc(Cl)c1)N1CC2(CCN(C/C=C/c3ccc(Cl)c(Cl)c3)CC2)c2cc3c(cc21)COC3` [Example 1, (E)-N-((2-chloropyridin-4-yl)methyl)-1′-(3-(3,4-dichlorophenyl)allyl)-5,7-dihydrospiro[furo[3,4-f]indole-3,4′-piperidine]-1(2H)-carboxamide], in assay [1] (setting [4]), the minimal effective concentration turned out to be 1 µM. Further, the Ki in assay [3] is 70 nM.
For `O=C(NCc1ccnc(F)c1)N1CC2(CCN(C/C=C/c3ccc(Cl)cc3)CC2)c2cc3c(cc21)COC3` [Example 2, (E)-1′-(3-(4-chlorophenyl)allyl)-N-((2-fluoropyridin-4-yl)methyl)-5,7-dihydrospiro[furo[3,4-f]indole-3,4′-piperidine]-1(2H)-carboxamide], the minimal effective concentration in assay [1] (setting [4]) stood at 18.2 µM; in assay [2] (setting [5]), 10 µM. Moreover, the Ki in assay [3] was determined as 321 nM.
Regarding `O=C(NCc1cnc(Cl)s1)N1CC2(CCN(C/C=C/c3ccc(Cl)cc3)CC2)c2cc3c(cc21)COC3` [Example 3, (E)-1′-(3-(4-chlorophenyl)allyl)-N-((2-chlorothiazol-5-yl)methyl)-5,7-dihydrospiro[furo[3,4-f]indole-3,4′-piperidine]-1(2H)-carboxamide], the minimal effective concentration was 3.3 µM in assay [1] (setting [6]) and 5.7 µM in assay [2] (72 hours, read-out: Di MF). In assay [3], the Ki stood at 31.2 nM.
`O=C(NCc1ccnc(Cl)c1)N1CC2(CCN(C/C=C/c3ccc(F)cc3)CC2)c2cc3c(cc21)COC3` [Example 4, (E)-N-((2-chloropyridin-4-yl)methyl)-1′-(3-(4-fluorophenyl)allyl)-5,7-dihydrospiro[furo[3,4-f]indole-3,4′-piperidine]-1(2H)-carboxamide]: the minimal effective concentration was determined as 10 µM in assay [1] (setting [6]) and 10 µM in assay [2] (72 hours, read-out: Di MF). Also, the Ki in assay [3] was found to be 78.7 nM.
For the compound `N#Cc1ccc(/C=C/CN2CCC3(CC2)CN(C(=O)NCc2ccnc(Cl)c2)c2cc4c(cc23)COC4)cc1` [Example 5, (E)-N-((2-chloropyridin-4-yl)methyl)-1′-(3-(4-cyanophenyl)allyl)-5,7-dihydrospiro[furo[3,4-f]indole-3,4′-piperidine]-1(2H)-carboxamide], the minimal effective concentration was found to be 33 µM in assay [1] (setting [4]) and 10 µM in assay [2] (setting [5]). In addition, the Ki in assay [3] is 70.1 nM.
Take `O=C(NCc1ccnc(Cl)c1)N1CC2(CCN(C/C=C/c3ccc(Cl)cc3)CC2)c2cc3c(cc21)OCO3` [Example 6, (E)-1-(3-(4-chlorophenyl)allyl)-N-((2-chloropyridin-4-yl)methyl)spiro[piperidine-4,7′-[1,3]dioxolo[4,5-f]indole]-5′(6′H)-carboxamide]: the minimal effective concentration in assay [1] (setting [6]) turned out to be 3.3 µM; in assay [2] (72 hours, read-out: Di MF), 10 µM. For the same compound, the Ki in assay [3] came out at 35.4 nM.
For `CC1(C)Oc2cc3c(cc2O1)C1(CCN(C/C=C/c2ccc(Cl)c(Cl)c2)CC1)CN3C(=O)NCc1ccnc(Cl)c1` [Example 7, (E)-N-((2-chloropyridin-4-yl)methyl)-1-(3-(3,4-dichlorophenyl)allyl)-2′,2′-dimethylspiro[piperidine-4,7′-[1,3]dioxolo[4,5-f]indole]-5′(6′H)-carboxamide] the same measures were 100 µM, 10 µM and 516 nM.
In the case of `CC1(C)Oc2cc3c(cc2O1)C1(CCN(C/C=C/c2ccc(Cl)cc2)CC1)CN3C(=O)NCc1ccnc(Cl)c1` [Example 8, (E)-1-(3-(4-chlorophenyl)allyl)-N-((2-chloropyridin-4-yl)methyl)-2′,2′-dimethylspiro[piperidine-4,7′-[1,3]dioxolo[4,5-f]indole]-5′(6′H)-carboxamide], the minimal effective concentration worked out at 100 µM in assay [1] (setting [6]) and 10 µM in assay [2] (72 hours, read-out: Di MF). Moreover, in assay [3], the Ki is 1520 nM.
With `O=C(NCc1ccnc(Cl)c1)N1CC2(CCN(C/C=C/c3ccc(Cl)c(Cl)c3)CC2)c2cc3c(cc21)OCCO3` [Example 9, (E)-N-((2-chloropyridin-4-yl)methyl)-1-(3-(3,4-dichlorophenyl)allyl)-2′,3′-dihydrospiro[piperidine-4,8′-[1,4]dioxino[2,3-f]indole]-6′(7′H)-carboxamide], the results for the minimal effective concentration in assay [1] (setting [4]) and in assay [2] (setting [5]) were 33 µM and 10 µM, respectively. In assay [3], the Ki was found to be 62.8 nM.
Consider `O=C(NCc1ccnc(Cl)c1)N1CC2(CCN(C/C=C/c3ccc(Cl)c(Cl)c3)CC2)c2c1ccc1c2OCCO1` [Example 11, (E)-N-((2-chloropyridin-4-yl)methyl)-1-(3-(3,4-dichlorophenyl)allyl)-2′,3′-dihydrospiro[piperidine-4,9′-[1,4]dioxino[2,3-e]indole]-7′(8′H)-carboxamide], for which the minimal effective concentration in assay [1] (setting [4]) was 100 µM; in assay [2] (setting [5]) it was 10 µM. For the same compound, in assay [3], the Ki came out at 178 nM.
Take `O=C(NCc1ccnc(Cl)c1)N1CC2(CCN(C/C=C/c3ccc(Cl)c(Cl)c3)CC2)c2cc3c(cc21)CCC3` [Example 12, (E)-N-((2-chloropyridin-4-yl)methyl)-1′-(3-(3,4-dichlorophenyl)allyl)-2,5,6,7-tetrahydro-1H-spiro[cyclopenta[f]indole-3,4′-piperidine]-1-carboxamide]: the minimal effective concentration in assay [1] (setting [6]) was found to be 2.2 µM; in assay [2] (72 hours, read-out: Di MF), 10 µM. Moreover, the Ki in assay [3] turned out to be 56.3 nM.
For the compound `O=C(NCc1ccncc1)N1CC2(CCN(C/C=C/c3ccc(Cl)c(Cl)c3)CC2)c2c1ccc1scnc21` [Example 13, (E)-1-(3-(3,4-dichlorophenyl)allyl)-N-(pyridin-4-ylmethyl)spiro[piperidine-4,8′-thiazolo[4,5-e]indole]-6′(7′H)-carboxamide], the minimal effective concentration stood at 100 µM in assay [1] (setting [4]) and 10 µM in assay [2] (setting [5]). Further, in assay [3], the Ki was 379 nM.
Regarding `O=C(NCc1ncccn1)N1CC2(CCN(C/C=C/c3ccc(Cl)c(Cl)c3)CC2)c2c1ccc1scnc21` [Example 14, (E)-1-(3-(3,4-dichlorophenyl)allyl)-N-(pyrimidin-2-ylmethyl)spiro[piperidine-4,8′-thiazolo[4,5-e]indole]-6′(7′H)-carboxamide], the minimal effective concentration in assay [1] (setting [4]) is 100 µM; in assay [2] (setting [5]) it was 10 µM. Moreover, the inhibition constant Ki in assay [3] worked out at 721 nM.
For `O=C(NCc1ccccc1)N1CC2(CCN(C/C=C/c3ccc(Cl)c(Cl)c3)CC2)c2c1ccc1scnc21` [Example 15, (E)-N-benzyl-1-(3-(3,4-dichlorophenyl)allyl)spiro[piperidine-4,8′-thiazolo[4,5-e]indole]-6′(7′H)-carboxamide] the same measures were 100 µM, 4.4 µM and 610 nM.
Take `O=C(NCc1ccc(F)cc1)N1CC2(CCN(C/C=C/c3ccc(Cl)c(Cl)c3)CC2)c2c1ccc1scnc21` [Example 16, (E)-1-(3-(3,4-dichlorophenyl)allyl)-N-(4-fluorobenzyl)spiro[piperidine-4,8′-thiazolo[4,5-e]indole]-6′(7′H)-carboxamide]: the minimal effective concentration in assay [1] (setting [4]) is 100 µM; in assay [2] (setting [5]), 3.3 µM. The Ki in assay [3] came to 7340 nM.
For `COc1nc2ccccc2cc1CN1CCC2(CC1)CN(C(=O)NCc1ccnc(Cl)c1)c1ccc(Cl)cc12` [Example 134, 5-chloro-N-((2-chloropyridin-4-yl)methyl)-1′-((2-methoxyquinolin-3-yl)methyl)spiro[indoline-3,4′-piperidine]-1-carboxamide], the minimal effective concentration in assay [1] (setting [6]) was determined as 2 µM. The Ki in assay [3] was determined as 34.9 nM.
Turning to `CN(Cc1ccnc(Cl)c1)C(=O)N1CC2(CCN(C/C=C/c3ccc(Cl)cc3)CC2)c2cc(Cl)ccc21` [Example 188, (E)-5-chloro-1′-(3-(4-chlorophenyl)allyl)-N-((2-chloropyridin-4-yl)methyl)-N-methylspiro[indoline-3,4′-piperidine]-1-carboxamide], the minimal effective concentration in assay [1] (setting [4]) was found to be 2 µM. In addition, the Ki in assay [3] worked out at 172 nM.
